According to patent US11919908B2, “Substituted pyrrolo[2,3-d]pyrimidine compounds as JAK2 V617F inhibitors” (Incyte Corporation, priority 2020, dated 2024):

Key:
[1] = molecular target: T1, pseudo-kinase domain (JH2) of human V617F mutant JAK2 (Homo sapiens, UniProt O60674, F794H/V617F/W659A/W777A); assay: JAK2 LanthaScreen JH2-V617F Binding Assay; conditions: 50 nM Fluorescent JAK2-JH2 Tracer, 1 hour at 25° C.
T1 construct: pseudo-kinase domain (JH2, amino-acids 536-812 with 3 surface mutations W659A, W777A, F794H); His (C); purchased BPS Bioscience 79498; host or cells: baculovirus expression system
T1 sequence (O60674 536-812 V617F/W659A/W777A/F794H): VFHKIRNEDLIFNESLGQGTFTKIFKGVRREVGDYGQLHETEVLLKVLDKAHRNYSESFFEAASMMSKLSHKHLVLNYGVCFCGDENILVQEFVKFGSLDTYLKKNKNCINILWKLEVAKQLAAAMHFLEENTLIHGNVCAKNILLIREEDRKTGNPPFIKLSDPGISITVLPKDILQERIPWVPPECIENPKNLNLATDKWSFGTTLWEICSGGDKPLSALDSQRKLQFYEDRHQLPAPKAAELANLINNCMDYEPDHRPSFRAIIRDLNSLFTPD
Method in brief: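 Biotinylated His-Avi-tagged JH2 domain (aa 536-812, V617F plus 3 surface mutations; 0.26 nM), baculovirus-expressed, incubated 1 hour at 25° C with compound, 50 nM fluorescent JH2 tracer and 0.25 nM streptavidin-Tb in pH 7.5 Tris buffer. Tracer displacement read by LanthaScreen TR-FRET; non-specific binding with 2 mM ATP; four-parameter IC50.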

[2] = molecular target: T2, catalytic domain (JH1) of human JAK2 (Homo sapiens, UniProt O60674); assay: JAK2 LanthaScreen JH1 Binding Assay; conditions: 50 nM Fluorescent JAK2-JH1 Tracer, 2 hours at 25° C.
T2 construct: catalytic domain (JH1, amino acids 826-1132) of human JAK2; FLAG (N); purchased Carna Biosciences 08-445-20N; host or cells: baculovirus expression system
T2 sequence (O60674 826-1132): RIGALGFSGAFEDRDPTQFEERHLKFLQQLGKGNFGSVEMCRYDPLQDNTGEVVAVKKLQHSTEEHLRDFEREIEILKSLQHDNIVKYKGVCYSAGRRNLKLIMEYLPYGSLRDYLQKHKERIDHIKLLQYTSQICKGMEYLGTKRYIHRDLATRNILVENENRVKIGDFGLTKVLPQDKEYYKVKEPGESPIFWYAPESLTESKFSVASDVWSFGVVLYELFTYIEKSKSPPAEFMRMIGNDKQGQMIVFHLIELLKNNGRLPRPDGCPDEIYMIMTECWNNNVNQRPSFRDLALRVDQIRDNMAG
Method in brief: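 TR-FRET tracer-displacement binding using N-terminal FLAG-tagged, biotinylated JH1 (aa 826-1132, baculovirus-expressed) at 1.5 nM, with 50 nM fluorescent tracer and 0.5 nM streptavidin-Tb. Buffer was 50 mM Tris pH 7.5, 10 mM MgCl2, 5 mM DTT, 2 h at 25° C. Non-specific binding used 2 mM ATP; IC50 came from four-parameter fits.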

[3] = molecular target: T3, pseudo-kinase domain (JH2) of human Wild Type JAK2 (Homo sapiens, UniProt O60674, F794H/W659A/W777A); assay: JAK2 LanthaScreen JH2-WT Binding Assay; conditions: 50 nM Fluorescent JAK2-JH2 Tracer, 1 hour at 25° C.
T3 construct: pseudo-kinase domain (JH2, amino-acids 536-812 with 3 surface mutations W659A, W777A, F794H); His (C); purchased BPS Bioscience 79463; host or cells: baculovirus expression system
T3 sequence (O60674 536-812 W659A/W777A/F794H): as the sequence (O60674 536-812 V617F/W659A/W777A/F794H) above, with F82V counted along it
Method in brief: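 Biotinylated His-Avi-tagged JAK2 JH2 (aa 536-812, three surface mutations; 0.145 nM) competed with 50 nM fluorescent tracer, using 0.25 nM streptavidin-Tb, in pH 7.5 Tris buffer for 1 h at 25° C.; non-specific binding was set with 2 mM ATP. TR-FRET read; IC50 from four-parameter fit.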

| SMILES | IC50 [1] [nM] | IC50 [2] [nM] | IC50 [3] [nM] |
| --- | --- | --- | --- |
| COc1ccccc1-c1c(-c2ccccc2)[nH]c2nc(N)[nH]c(=O)c12 [Example 57, 2-Amino-5-(2-methoxyphenyl)-6-phenyl-3,7-dihydro-4H-pyrrolo [2,3-d]pyrimidin-4-one] | 1000 to 2500 | > 2500 | 1000 to 2500 |
| Nc1nc2[nH]c(-c3ccccc3)c(-c3ccccc3C(F)(F)F)c2c(=O)[nH]1 [Example 59, 2-Amino-6-phenyl-5-(2-(trifluoro-methyl)phenyl)-3,7-dihydro-4H-pyrrolo[2,3-d] pyrimidin-4-one] | > 2500 | > 2500 | > 2500 |
| Cc1cccc(-c2c(-c3ccc(C(=O)N(C)C)cc3)[nH]c3nc(N)[nH]c(=O)c23)c1 [Example 60, 4-(2-Amino-4-oxo-5-(3-tolyl)-4,7-dihydro-3H-pyrrolo[2,3-d]pyrimidin-6-yl)-N,N-dimethylbenzamide] | 500 to 1000 | > 2500 | 500 to 1000 |
| Cc1cccc(-c2c(-c3cccc(C(=O)N(C)C)c3)[nH]c3nc(N)[nH]c(=O)c23)c1 [Example 61, 3-(2-Amino-4-oxo-5-(3-tolyl)-4,7-dihydro-3H-pyrrolo [2,3-d]pyrimidin-6-yl)-N,N-dimethyl-benzamide] | 1000 to 2500 | > 2500 | 1000 to 2500 |
| COc1ccccc1-c1c(-c2cccc(S(C)(=O)=O)c2)[nH]c2nc(N)[nH]c(=O)c12 [Example 63, 2-Amino-5-(2-methoxyphenyl)-6-(3-(methylsulfonyl)phenyl)-3,7-dihydro-4H-pyrrolo[2,3-d] pyrimidin-4-one] | > 2500 | > 2500 | > 2500 |
| COc1ccccc1-c1c(-c2ccc(S(=O)(=O)N(C)C)cc2)[nH]c2nc(N)[nH]c(=O)c12 [Example 65, 4-(2-Amino-5-(2-methoxyphenyl)-4-oxo-4,7-dihydro-3H-pyrrolo[2,3-d]pyrimidin-6-yl)-N,N-dimethylbenzene-sulfonamide] | 100 to 500 | > 2500 | 100 to 500 |
| COc1ccc(C)cc1-c1c(-c2ccc(S(=O)(=O)N(C)C)cc2)[nH]c2nc(N)[nH]c(=O)c12 [Example 66, 4-(2-Amino-5-(2-methoxy-5-methylphenyl)-4-oxo-4,7-dihydro-3H-pyrrolo[2,3-d]pyrimidin-6-yl)-N,N-dimethylbenzenesulfonamide] | 100 to 500 | > 2500 | 100 to 500 |
| COc1cccc(F)c1-c1c(-c2ccc(S(=O)(=O)N(C)C)cc2)[nH]c2nc(N)[nH]c(=O)c12 [Example 68, 4-(2-Amino-5-(2-fluoro-6-methoxyphenyl)-4-oxo-4,7-dihydro-3H-pyrrolo[2,3-d]pyrimidin-6-yl)-N,N-dimethylbenzenesulfonamide] | 500 to 1000 | > 2500 | 500 to 1000 |
| Cc1ccc(F)c(-c2c(-c3ccc(S(=O)(=O)N(C)C)cc3)[nH]c3nc(N)[nH]c(=O)c23)c1 [Example 69, 4-(2-Amino-5-(2-fluoro-5-methylphenyl)-4-oxo-4,7-dihydro-3H-pyrrolo[2,3-d]pyrimidin-6-yl)-N,N-dimethylbenzenesulfonamide] | 100 to 500 | 1000 to 2500 | 100 to 500 |
| CCOc1ccccc1-c1c(-c2ccc(S(=O)(=O)N(C)C)cc2)[nH]c2nc(N)[nH]c(=O)c12 [Example 70, 4-(2-Amino-5-(2-ethoxyphenyl)-4-oxo-4,7-dihydro-3H-pyrrolo[2,3-d]pyrimidin-6-yl)-N,N-dimethylbenzenesulfonamide] | 1000 to 2500 | > 2500 | 1000 to 2500 |
| CN(C)S(=O)(=O)c1ccc(-c2[nH]c3nc(N)[nH]c(=O)c3c2-c2cccc3c2OC(C)(C)C3)cc1 [Example 71, 4-(2-Amino-5-(2,2-dimethyl-2,3-dihydrobenzofuran-7-yl)-4-oxo-4,7-dihydro-3H-pyrrolo[2,3-d]pyrimidin-6-yl)-N,N-dimethylbenzenesulfonamide] | > 2500 | > 2500 | > 2500 |

Other lines, results leading:

| IC50 [1] [nM] | IC50 [2] [nM] | IC50 [3] [nM] | SMILES |
| --- | --- | --- | --- |
| 500 to 1000 | > 2500 | 500 to 1000 | COc1ccccc1-c1c(-c2ccc(C(=O)N(C)C)cc2)[nH]c2nc(N)[nH]c(=O)c12 [Example 56, 4-(2-Amino-5-(2-methoxyphenyl)-4-oxo-4,7-dihydro-3H-pyrrolo[2,3-d]pyrimidin-6-yl)-N,N-dimethylbenzamide] |
| 1000 to 2500 | > 2500 | 1000 to 2500 | Nc1nc2[nH]c(-c3ccccc3)c(-c3cccc(F)c3)c2c(=O)[nH]1 [Example 58, 2-Amino-5-(3-fluorophenyl)-6-phenyl-3,7-dihydro-4H-pyrrolo[2,3-d] pyrimidin-4-one] |
| 500 to 1000 | > 2500 | 1000 to 2500 | COc1ccccc1-c1c(-c2ccc(S(C)(=O)=O)cc2)[nH]c2nc(N)[nH]c(=O)c12 [Example 62, 2-Amino-5-(2-methoxyphenyl)-6-(4-(methylsulfonyl)phenyl)-3,7-dihydro-4H-pyrrolo [2,3-d]pyrimidin-4-one] |
| 100 to 500 | 100 to 500 | 100 to 500 | CN(C)S(=O)(=O)c1ccc(-c2[nH]c3nc(N)[nH]c(=O)c3c2-c2ccccc2F)cc1 [Example 64, 4-(2-Amino-5-(2-fluorophenyl)-4-oxo-4,7-dihydro-3H-pyrrolo[2,3-d]pyrimidin-6-yl)-N,N-dimethylbenzene-sulfonamide] |
| 100 to 500 | 100 to 500 | 100 to 500 | Cc1cccc(-c2c(-c3ccc(S(=O)(=O)N(C)C)cc3)[nH]c3nc(N)[nH]c(=O)c23)c1F [Example 67, 4-(2-Amino-5-(2-fluoro-3-methylphenyl)-4-oxo-4,7-dihydro-3H-pyrrolo[2,3-d]pyrimidin-6-yl)-N,N-dimethylbenzenesulfonamide] |
